Where a SMILES comes first, the peptide text is derived from it. Bridges are numbered along the chain shown (N, C = ends). [ ]: non-standard residue; d: D form.
Experiments:
Gαs/GDP = molecular target: T1, Gαs/GDP (Homo sapiens, UniProt P63092); assay: Bio-layer interferometry (BLI), GDP-bound Gαs; conditions: read-out: KD, binding to Gαs/GDP
T1 construct: hexahistidine (N, cleaved yes); made in house; host or cells: E. coli BL21(DE3)
Description: (§1) BLI experiments were performed using an OctetRED384 instrument from ForteBio. All experiments were performed at 25°C using BLI buffer (10 mM HEPES pH 7.4, 150 mM NaCl, 1mM MgCl2, 0.05% Tween 20, 0.1% DMSO, 0.2 mM GNP or GDP). Cyclic peptides or Gα proteins were diluted to a series of concentrations (Final concentrations were indicated in Figures) in BLI buffer plus 10 μM Biotin. Assays were conducted in Greiner 384well, black, flat bottom polypropylene plates containing the protein solutions, BLI buffer plus 10 μM Biotin for dissociation, and serial dilutions of cyclic peptides to be tested.
(§2) Biotinylated proteins or cyclic peptides were immobilized on Streptavidin biosensors by dipping sensors into plate wells containing protein solutions at a concentration of 50–150 nM. Protein loading is around 2–3 nm. Cyclic peptide loading is around 0.2–0.3 nm. Sensors loaded with proteins or cyclic peptides were moved and dipped into wells with BLI buffer plus 10 μM Biotin to block unlabeled Streptavidin. […]
(§3) Raw kinetic data collected were processed with the Data Analysis software provided by the manufacturer using single reference subtraction in which buffer-only reference was subtracted (For GN13 analysis). […] The resulting data were analyzed based on a 1:1 binding model from which kon and koff values were obtained and then Kd values were calculated.

Gαs = molecular target: T2, Gαs (Homo sapiens, UniProt P63092); assay: Steady-state GTPase assay, Gαs short isoform; type: biochemical; conditions: read-out: IC50, inhibition of Gαs steady-state GTPase activity
T2 construct: vector His tag with thrombin/Drice site (removed); made in house; host or cells: E. coli BL21(DE3)
Description: (§4) WT Gαs (both short and long) was diluted to a 6 μM stock (4X) in GTPase assay buffer (20 mM HEPES 7.5, 150 mM NaCl, 1 mM MgCl2). The protein was 1:1 (v/v) diluted with 4X cyclic peptide stock (0, 1.56, 3.12, 6.25, 12.5, 25, 50, 100 μM) in GTPase assay buffer, and incubated at 37°C for an hour. The samples were then 1:1 (v/v) diluted with reaction buffer (20 mM HEPES 7.5, 150 mM NaCl, 1 mM MgCl2, and 1 mM GTP) and incubated at 37°C. After 30, 50, 70, 90 min, 50 μL of the sample was removed to measure the inorganic phosphate (Pi) concentration by PiColorLock Phosphate Detection kit. A standard curve was made using the 0.1 mM Pi stock in the kit. Final [cyclic peptide]: 0, 0.39, 0.78, 1.56, 3.12, 6.25, 12.5, 25 μM; Final [Gαs]: 1.5 μM; Final [GTP]: 500 μM.

long isoform of Gαs = molecular target: T3, long isoform of Gαs (Homo sapiens, UniProt P63092); assay: Steady-state GTPase assay, Gαs long isoform; type: biochemical; conditions: read-out: IC50, inhibition of steady-state GTPase activity of long isoform of Gαs
T3 construct: made in house; host or cells: E. coli BL21(DE3)
Description: as §4

Gαs/GDP and Gβγ(C68S) = molecular target: T4, Gαs/GDP and Gβγ(C68S) (Homo sapiens, UniProt P63092); assay: FRET based Gαs/Gβγ interaction assay; type: binding; conditions: FRET, Gαs/GDP 4 nM, Gβ1/γ2(C68S) 2 nM; read-out: IC50, inhibition of Gαs/Gβγ interaction
T4 construct: hexahistidine (N, cleaved yes); made in house; host or cells: E. coli BL21(DE3) (Gαs); Sf9 insect cells (Gβ1γ2)

[1] = Chemical stability assay in DMEM with 10% FBS; type: in vitro ADME; conditions: bovine, DMEM with 10% FBS (fetal bovine serum), 37 °C, values represent 95% confidence intervals, read-out: Half-life (hour), chemical stability in DMEM with 10% FBS
Description: (§5) These assays were conducted by Pharmaron Beijing CO., Ltd. Cyclic peptides working solutions were prepared at 10 μM in DMEM with 10% FBS (Avantor, Cat# 76,294–180) or human plasma (Pooled, Male & Female, BioIVT, Cat# HMN666664). The assays were performed in duplicate. Vials were incubated at 37 °C at 60 rpm in a water bath and taken at designated time points including 0, 480, 1080 and 1440 min. For each time point, the initiation of the reaction was staggered so all the time points were terminated with cold acetonitrile containing internal standards (IS, 100 nM alprazolam, 200 nM labetalol, 200 nM Imipramine and 2 μM ketoplofen) at the same time. Samples were vortexed then centrifuged at 4°C to remove proteins. The supernatants from centrifugation were diluted by ultra-pure H2O and used for LC-MS/MS analysis. All calculations were carried out using GraphPad Prism. Remaining percentages of parent compounds at each time point were estimated by determining the peak area ratios from extractedion chromatograms.

Plasma stability assay = type: in vitro ADME; conditions: both sexes, pooled human plasma, 37 °C, values represent 95% confidence intervals, read-out: Half-life (hour), plasma stability
Description: as §5

Gαs (short isoform) = molecular target: T5, Gαs (short isoform) (Homo sapiens, UniProt P63092); assay: Reconstituted adenylyl cyclase (AC) activity assay, Gαs/GNP-mediated AC activation; type: biochemical; conditions: Gαs/GNP 125 nM, read-out: IC50, inhibition of Gαs-mediated AC activation
T5 construct: vector His tag with thrombin/Drice site (removed); made in house; host or cells: E. coli BL21(DE3)
Description: Cyclic peptides (4 mM stock in DMSO) were diluted to 4X stocks with a series of concentrations in reaction buffer (1x PBS 7.4, 0.1% BSA). Gαs at a concentration of 8.5 mg/mL (about 190 μM) in 20 mM HEPES 8.0, 150 mM NaCl, 5 mM MgCl2, 1 mM EDTA-Na 8.0 was diluted to 0.5 μM in dilution buffer (1x PBS 7.4, 0.1% BSA, 1 mM EDTA-Na 8.0, 2 mM DTT, 0.1mM MgCl2) plus 1mM GNP (For the GDP-bound R201 mutants, GDP was used in the nucleotide exchange experiments). After incubation at room temperature for 1 h to allow nucleotide exchange, 2.5 μL of 4x Gαs dilution was mixed with 1 μL MgCl2 stock (20 mM MgCl2, 1x PBS 7.4, 0.1% BSA) in an OptiPlate-384, White Opaque 384-well Microplate to lock Gαs in GNP-bound state. 2 μL of 5x AC stock (2 μM VC1, 2 nM IIC2, 150 μM FSK, 1x PBS 7.4, 0.1% BSA) was added, followed by addition of 2.5 μL 4X cyclic peptides stock. […] The cAMP concentrations were measured by the LANCE Ultra cAMP kit. […]
cAMP concentrations measurement by the LANCE Ultra cAMP kit: A cAMP standard curve was generated in the same plate using the 50 μM cAMP standard in the kit. […] 10 μL of each diluted sample was mixed with 5 μL of 4X Eu-cAMP tracer and 5 μL of 4X ULight-anti-cAMP in a white, opaque Optiplate-384 microplate, incubated for 1 h at room temperature, and the time-resolved fluorescence resonance energy transfer (TR-FRET) signals were read on a Spark 20M plate reader. […]

Gαs/GNP = molecular target: T6, Gαs/GNP (Homo sapiens, UniProt P63092); assay: Bio-layer interferometry (BLI), GNP-bound Gαs; conditions: immobilized Gαs/GNP, read-out: KD, binding to Gαs/GNP
T6 construct: hexahistidine (N, cleaved yes); made in house; host or cells: E. coli BL21(DE3)
Description: as §1, §2, §3

T3 sequence (P63092 whole entry, canonical isoform): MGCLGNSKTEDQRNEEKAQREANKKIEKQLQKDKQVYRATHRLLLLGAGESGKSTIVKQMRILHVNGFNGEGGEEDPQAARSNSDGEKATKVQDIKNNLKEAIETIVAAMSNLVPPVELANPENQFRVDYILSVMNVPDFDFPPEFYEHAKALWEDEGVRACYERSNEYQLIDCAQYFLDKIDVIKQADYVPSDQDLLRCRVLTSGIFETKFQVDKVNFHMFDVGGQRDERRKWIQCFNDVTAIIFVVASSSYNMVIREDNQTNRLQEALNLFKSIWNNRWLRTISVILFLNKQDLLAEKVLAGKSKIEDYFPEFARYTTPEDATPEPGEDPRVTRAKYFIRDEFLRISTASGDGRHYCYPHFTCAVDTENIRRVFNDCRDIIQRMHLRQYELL
T5 sequence (P63092 with tags, fused parts or gaps isoform P63092-2): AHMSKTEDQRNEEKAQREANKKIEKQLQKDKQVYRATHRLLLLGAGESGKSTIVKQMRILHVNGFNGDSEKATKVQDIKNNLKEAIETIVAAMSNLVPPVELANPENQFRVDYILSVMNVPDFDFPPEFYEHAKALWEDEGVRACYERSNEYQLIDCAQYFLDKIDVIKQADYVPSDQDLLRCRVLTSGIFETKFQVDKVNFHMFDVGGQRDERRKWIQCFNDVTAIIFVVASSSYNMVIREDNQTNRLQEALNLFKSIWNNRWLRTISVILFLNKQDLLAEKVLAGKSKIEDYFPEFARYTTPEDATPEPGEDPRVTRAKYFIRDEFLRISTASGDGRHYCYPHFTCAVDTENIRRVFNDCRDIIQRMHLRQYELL
T4 sequence (P63092 with tags, fused parts or gaps isoform P63092-2): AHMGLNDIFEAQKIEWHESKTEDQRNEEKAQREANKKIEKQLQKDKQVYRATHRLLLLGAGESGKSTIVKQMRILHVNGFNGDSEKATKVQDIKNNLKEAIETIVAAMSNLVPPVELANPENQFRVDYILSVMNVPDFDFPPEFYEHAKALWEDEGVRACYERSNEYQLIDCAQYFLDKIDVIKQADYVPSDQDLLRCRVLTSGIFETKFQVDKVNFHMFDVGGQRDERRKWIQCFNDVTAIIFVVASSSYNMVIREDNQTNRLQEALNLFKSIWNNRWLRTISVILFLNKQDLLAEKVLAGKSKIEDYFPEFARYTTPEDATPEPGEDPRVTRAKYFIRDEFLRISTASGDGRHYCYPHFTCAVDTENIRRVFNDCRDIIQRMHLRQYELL

Row | Kd (Gαs/GDP) [µM] | IC50 (Gαs) [µM] | IC50 (long isoform of Gαs) [µM] | IC50 (Gαs/GDP and Gβγ(C68S)) [µM] | half-life at 10 μM [1] [h] | half-life at 10 μM (Plasma stability assay) [h] | IC50 (Gαs (short isoform)) [µM] | Kd (Gαs/GNP) [µM] | SMILES
1 | 0.0314 ± 0.0007 | 1.15 ± 0.16 | 1.32 ± 0.17 | 0.0184 ± 0.002 | > 142 | 16.4 to 27.1 | – | – | CC[C@H](C)[C@@H]1NC(=O)[C@H](CC(C)C)NC(=O)[C@@H](Cc2ccc(O)cc2)NC(=O)CSC[C@@H](C(=O)NCC(N)=O)NC(=O)[C@@H]2CCCN2C(=O)[C@H](CC(C)C)NC(=O)[C@H](CC(N)=O)NC(=O)[C@H](Cc2ccccc2)NC(=O)[C@H](C)NC(=O)[C@H](Cc2c[nH]c3ccccc23)NC(=O)[C@H](CCC(N)=O)NC(=O)[C@H](CCCNC(=N)N)NC(=O)[C@H](Cc2ccccc2)NC(=O)[C@H]([C@@H](C)O)NC1=O [GD20] ({CH2CO}-[dY]LITFRQWAFNLPCG-NH2; thioether N-14)
2 | – | – | – | – | > 76 | > 82 | 4.15 ± 1.13 | 0.19 ± 0.02 | CC[C@H](C)[C@@H]1NC(=O)[C@H](C)NC(=O)[C@H](Cc2ccc(O)cc2)NC(=O)[C@H](C(C)C)NC(=O)[C@H](CO)NC(=O)[C@H](CCC(=O)O)NC(=O)[C@H](Cc2ccccc2)NC(=O)[C@@H](Cc2ccc(O)cc2)NC(=O)CSC[C@@H](C(=O)NCC(N)=O)NC(=O)[C@H](CC(C)C)NC(=O)[C@H]([C@@H](C)O)NC(=O)CNC(=O)[C@H](Cc2c[nH]c3ccccc23)NC1=O [GN13] ({CH2CO}-[dY]FESVYAIWGTLCG-NH2; thioether N-13)

From publication PMC9747239, “State-selective modulation of heterotrimeric Gαs signaling with macrocyclic peptides” (Cell, 2022)
